Source: PMC10254852, “Design, Synthesis and Anticancer Evaluation of Nitroimidazole Radiosensitisers” (Molecules, 2023)
Where two headings read alike, the source gives them in different places.

Legend:
[1] = system: HCT116/54C cells; assay: In vitro cytotoxicity, 4 h exposure oxic/anoxic, 5-day regrowth, sulforhodamine B; assay type: cell-based, human; conditions: HCT116/54C; for IC50: Homo sapiens, 4 h exposure, mean ± SEM, n = 3–4
From the text: (§1) This allowed derivation of hypoxia cytotoxicity ratios (HCR) as IC50(oxic)/IC50(anoxic) in an HCT116 subclone HCT116/54C and two HNSCC cell lines, FaDu and UT-SCC-74B (Table 2).
(§2) HCT116/54C is an HCT116 subline that originated from a mixed culture with UT-SCC-54C cells, which was supplied alongside UT-SCC-74B by Prof. Bradly Wouters (University Health Network, Toronto, ON, Canada). HCT116/54C and UT-SCC-74B cells were passaged in minimum essential media (MEM, ThermoFisher Scientific, Waltham, MA, USA) with 10% foetal calf serum (FCS, Moregate Biotech, Hamilton, New Zealand), 4.5 mg/mL D-glucose (Sigma-Aldrich, St. Louis, MO, USA) and 20 mM HEPES (Sigma-Aldrich). FaDu cells were sourced from American Type Culture Collection and cultured in αMEM (ThermoFisher Scientific) with 10% FCS. All cell lines were confirmed mycoplasma-free by PlasmoTest (InvivoGen, San Diego, CA, USA) and were derived from STR-authenticated cryopreserved stocks. Log-phase cells were seeded into 96-well plates at 800 cells/well for HCT116/54C and 1500 cells/well for FaDu. […] After drug washout, cells were grown and stained as for the oxic IC50 assays. The hypoxic cytotoxicity ratio HCR was determined as HCR = IC50(oxic)/IC50(anoxic).

[2] = system: UT-SCC-74B cells; assay: as above; assay type: cell-based, human; conditions: for IC50: Homo sapiens, 4 h exposure, mean ± SEM
From the text: as §1, §2

[3] = system: FaDu cells; assay: as above; assay type: cell-based; conditions: for IC50: Homo sapiens, 4 h exposure, mean ± SEM
From the text: as §1, §2

[4] = system: HCT116/54C cells; assay: In vitro radiosensitisation under anoxia, clonogenic survival; assay type: cell-based, human; conditions: compound 1 mM, radiation dose for 1% survival/radiation dose for 1% survival with compound, mean ± SEM
Experimental: Next, we evaluated in vitro radiosensitisation by using a representative subset of nitroimidazole compounds in HCT116/54C cells with a clonogenic survival endpoint. Radiosensitisation was determined by treating cells under anoxia with a range of radiation doses alone and with compounds at equimolar doses (1 mM). Sensitiser enhancement ratios (SER) were calculated as the ratio of radiation dose required for 1% clonogenic survival alone or with compound (Table 3).
Cells were seeded onto 96-well plates at 10^5 cells per well and allowed to attach for 2 h. […] The plates were irradiated (Eldorado 78 ^60Co teletherapy unit, ~2 Gy/min) with 15 Gy under anoxia at room temperature for SR experiments. A metal wedge placed on the top of the metal chamber was used to achieve a graduated radiation dose across the plate, varying from 7 to 29 Gy, calibrated by Fricke dosimetry with ammonium thiocyanate as previously described for SER experiments. The control plate (compound alone, no radiation) was left inside the anaerobic chamber at room temperature during the irradiation period. After treatment, the cells were trypsinized and suspended in usual media + 1% penicillin-streptomycin (ThermoFisher Scientific), and 10-fold serial dilutions were plated for clonogenic survival. After 10 days, plates were stained with methylene blue (2 g/L in EtOH/H2O, 1:1 v/v) and colonies with more than 50 cells were counted. The surviving fraction (SF) was determined as: SF = PE(irradiated)/PE(control) where the plating efficiency (PE) = (No. of colonies)/(No. of cells plated). SF was plotted against radiation dose. Survival ratios (SR) were calculated: SR = (cell survival with radiation)/(cell survival with drug + radiation). Sensitizer enhancement ratios (SER) were calculated: SER = (radiation dose for 1% survival without compound)/(radiation dose for 1% survival with compound).

[5] = system: HCT116/54C tumours; assay: Tumour radiosensitisation: ex vivo clonogenic assay; assay type: in vivo, NIH-III mice
Experimental: (§3) Specific pathogen-free six- to eight-week-old female NIH-III mice, bred in the Vernon Jansen Unit, University of Auckland, were used for animal experiments. Animals had ad libitum access to food and water and were maintained in microisolator cages on a 12 h light/dark cycle. All treatments were administered by i.v. injection at a dose of 2.2 mmol/kg and injection volume of 10 mL/kg. Compounds 2, 34 and 38 were administered as solutions in saline containing 1% DMSO or for 9–12 as solutions in saline containing 2 molar equivalents of NaHCO3. Control animals received an i.v. injection of saline at 10 mL/kg. All animal experiments were conducted under the auspices of the University of Auckland Animal Ethics Committee (approval 1781).
(§4) Compounds were evaluated for in vivo radiosensitisation of hypoxic cells in HCT116/54C and UT-SCC-74B human tumour xenografts using clonogenic survival as an endpoint, using previously report methods. Tumours were grown subcutaneously on the flanks of NIH-III mice by injecting 5 × 10^6 HCT116/54C cells or UT-SCC-74B cells. Once tumours reached a volume of approximately 250 mm^3, mice were randomly assigned to 4 treatment groups and treated with: (A) vehicle control, (B) 10 Gy RAD only, (C) sensitiser only, or (D) sensitiser given before 10 Gy RAD. Drugs were administered as a single i.v. dose at 2.2 mmol/kg. […] Tumours were excised 18 h after treatment, and tumour cells were dissociated enzymatically and plated to determine the number of surviving (clonogenic) cells per gram of tumour tissue. SF and SR were calculated as described above. Statistical significance of drug effects was tested using one-way ANOVA with Sidak tests for multiple comparisons vs. radiation alone (Table 5).

[6] = system: UT-SCC-74B tumours; assay: as above; assay type: in vivo, NIH-III mice
Experimental: as §3, §4

[7] = Tolerability at maximum achievable dose, i.v.; assay type: in vivo; conditions: i.v. injection, NIH-III mice
From the text: The most promising 2-nitroimidazole 34 and 5-nitroimidazole 38 compounds were selected for in vivo evaluation on the basis of solubility, in vitro cytotoxicity and radiosensitisation data. These compounds were both well tolerated by i.v. injection in NIH-III mice at their maximum achievable dose (MAD) of 2.2 mmol/kg. This MAD was also achieved for some of our earlier compounds, but only when we employed a phosphate prodrug strategy owing to their poor solubility. […] The Cmax and AUC exceeded that achieved for earlier phosphate prodrugs 9–12, but was less than 2. On this basis we advanced both morpholine analogues into in vivo radiosensitisation studies.
as §3

[8] = system: HCT116/54C tumour xenografts; assay: Tumour growth inhibition in combination with radiation; assay type: in vivo, NIH-III mice; conditions: HCT116/54C tumours
Experimental: as §3
Compounds were evaluated for their ability to inhibit tumour growth in combination with a single dose of radiation (10 Gy) in HCT116/54C or UT-SCC-74B tumour xenografts on the backs of NIH-III mice. In addition, a fractionated radiation schedule (5 Gy on Days 1, 7 and 14) was explored in HCT116/54C tumour xenografts. Mice were randomly assigned to 4 treatment groups and treated with: (A) vehicle control, (B) 10 Gy RAD only, (C) sensitiser only, or (D) sensitiser given 10 min before 10 Gy RAD. Drugs were administered by i.v. injection at 2.2 mmol/kg either as a single dose or three doses on Days 1, 7 and 14 in the fractionated study. Treatment commenced when the average tumour size reached approximately 250 mm^3, and tumour size was measured until study endpoint. Mice were placed in a custom-built lead-shielded jig that allowed irradiation of the whole tumour but shielded the mouse from radiation. Survival analysis represented the time taken for tumours to increase in relative tumour volume by 4× from the start of treatment (RTV^4). The significance of differences in activity between the groups was assessed by log-rank with Holm–Sidak multiple comparison analysis.

[9] = anoxic, n = 3–4, read-out: IC50 Anoxic
[10] = oxic, n = 3–4, read-out: IC50 Oxic
[11] = 2.2 mmol/kg i.v. 5 min prior to 10 Gy radiation, surviving fraction after radiation/surviving fraction after drug + radiation
[12] = 2.2 mmol/kg i.v. + 10 Gy, one-way ANOVA
[13] = 2.2 mmol/kg i.v., 10 Gy, mechanism experiment (Figure 3)

Structure (SMILES): O=[N+]([O-])c1cncn1CS(=O)(=O)NCCN1CCOCC1 [Compound 38]
- HCR ([1]; IC50(oxic)/IC50(anoxic)): 11.2
- IC50 ([1]; anoxic, read-out: IC50 Anoxic): 1.2 ± 0.1 mM
- IC50 ([1]; oxic, read-out: IC50 Oxic): 13.7 ± 2 mM
- IC50 [2, 9]: 1.5 ± 0.3 mM
- IC50 [2, 10]: 13.1 ± 2.8 mM
- HCR ([2]; IC50(oxic)/IC50(anoxic)): 8.6
- IC50 [3, 9]: 1.8 ± 0.1 mM
- IC50 [3, 10]: 10.6 ± 0.6 mM
- HCR ([3]; IC50(oxic)/IC50(anoxic)): 5.8
- SER at 1 mM [4]: 1.39 ± 0.01
- Sensitisation Ratio [5, 11]: 3.43
- enhancement of tumour killing of radiotherapy (RAD vs drug + RAD) [5, 12]: significantly enhanced the tumour killing of radiotherapy
- SR, drug given 5 min before radiation [5, 13]: 8.26
- SR, drug given 20 min after radiation [5, 13]: 1.38
- Sensitisation Ratio [6, 11]: 11.5
- enhancement of tumour cell killing by radiotherapy (RAD vs drug + RAD) [6, 12]: significantly enhanced tumour cell killing by radiotherapy
- maximum achievable dose (MAD), well tolerated [7]: 2.2 mmol/kg
- survival (time to RTV^4) vs radiation alone ([8]; fractionated radiation, p < 0.05): significantly increased survival compared to radiation alone
- tumour growth delay with fractionated radiation ([8]; qw × 3, 5 Gy, 2.2 mmol/kg i.v.): delayed tumour growth relative to radiation alone
